Measured values from US20260207734A1 (priority 2021, published 2026).
Where two headings read alike, the source gives them in different places.

Legend:
[1] = tested on: CD8+ T cells of HLA-A02:01-positive human donors; type: cell-based
[2] = tested on: MHC (HLA-I and HLA-II alleles); parameters: key: +: previously assayed and confirmed as HLA-A02:01 binders in ViPR; details: cited from earlier work
peripheral CD8+ T cells = tested on: peripheral CD8+ T cells; parameters: species or system human; details: in vivo
[3] = PBMCs from three HLA-A02:01-positive human donors, pMHC multimer positive CD8+ T cells

Sequence of MHC (HLA-I and HLA-II alleles) (P61769 21-119): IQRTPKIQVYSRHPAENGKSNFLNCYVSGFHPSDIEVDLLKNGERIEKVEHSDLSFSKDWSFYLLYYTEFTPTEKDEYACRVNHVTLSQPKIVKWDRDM

Sequence: FGDDTVIEV
- No. Donors with pMHC specific T tells [1, 3]: 3

Sequence: FLFLTWICL
- No. Donors with pMHC specific T tells [1, 3]: 2

Sequence: FLLPSLATV
- No. Donors with pMHC specific T tells [1, 3]: 2

Sequence: GLTVLPPLL
- No. Donors with pMHC specific T tells [1, 3]: 1

Sequence: ILLNKHIDA
- Confirmed in VIPR [2]: +

Sequence: KLDDKDPNF
- No. Donors with pMHC specific T tells [1]: 2

Sequence: KLNDLCFTNV
- No. Donors with pMHC specific T tells [1, 3]: 2

Sequence: LLLDRLNQL
- No. Donors with pMHC specific T tells [1, 3]: 1
- Confirmed in VIPR [2]: +

Sequence: NLNESLIDL
- Confirmed in VIPR [2]: +

Sequence: QPTESIVRF
- multimer+ of CD8+ (peripheral CD8+ T cells): 0.17

Sequence: QYIKWPWYI
- multimer+ of CD8+ (peripheral CD8+ T cells): 1.27

Sequence: YLGTGPEAGL
- No. Donors with pMHC specific T tells [1]: 2

Sequence: YLQPRTFLL
- multimer+ of CD8+ (peripheral CD8+ T cells): 3.09
